Consider 3 molecules from patent US20120004297A1, “Agent for alleviating vascular failure” (Naoki HIGASHI, priority 2005, published 2012).

The test system of assay [1] is Vascular endothelial cells (GM07373A). As to the kind of experiment: Fluorescent intensity of vascular endothelial cells injured by hydrogen peroxide plus glucose, 24-wells plate, graphic analysis software method. It is filed as cell-based, cattle. As to conditions: for Fluorescent intensity compared with the hydrogen peroxide plus glucose added system: sample further added to hydrogen peroxide plus glucose. The protocol:
Vascular endothelial cells (GM07373A) subcultured with 10% FBS added EMEM were separated with a trypsin-EDTA solution. To 1.5 ml of the solution of the cells floated on 10% FBS added EMEM was added 9 ml of 10% FBS added EMEM and the resultant mixture was placed in a laboratory dish having a diameter of 9 cm and pre-cultivation was conducted at 37° C. for 3-4 days under an atmosphere of 5% carbon dioxide. Vascular endothelial cells in the culture broth were separated with a trypsin-EDTA solution and floated on 10% FBS added EMEM. 1 ml of the floated cell solution (number of cell: 0.7-0.9×10^5 cell/ml) was poured into each well of 24-wells plate and the main cultivation was conducted at 37° C. for 2 days under an atmosphere of 5% carbon dioxide. After removal of the culture medium, 0.4% FBS added EMEM was added in an amount of 500 μl per well to make the cells in starved state and cultivation was conducted at 37° C. over a night under an atmosphere of 5% carbon dioxide. A sample solution and 10 μl of an aqueous glucose solution (200 mg/ml) were added and cultivation was conducted at 37° C. for 2 hours under an atmosphere of 5% carbon dioxide. After removal of the culture medium, A Hanks' solution (a product of Nihon Pharmaceutical Co., Ltd.) was added to the wells in the amount of 1 ml per well for twice washing. After removal of the solution, a dye solution containing hydrogen peroxide (or a dye solution not containing hydrogen peroxide) was added in the amount of 300 μl per well and cultivation was conducted at 37° C. for 30 minutes under an atmosphere of 5% carbon dioxide. The dye solution was removed to measure the fluorescent intensity of the cell.
GM07373A is a cattle's aortic vascular endothelial cell strain, “Repository No. GM07373A” purchased from Coriel Human Genetic Cell Repository in U.S.A. The dye solution containing hydrogen peroxide was prepared by mixing 50 μg of the solution of fluorescent pigment (“C-6827”, a product of Molecular Probe Company) dissolved in 90 μl of DMSO with 9 ml of the Hanks' solution and adding 90 μl of 0.3% hydrogen peroxide thereto. Hydrogen peroxide was not added for the control test.
As a sample solution, there were used methanol solutions of astaxanthin (a product of Sigma Company) in 0.053 mg/ml and 0.0053 mg/ml, methanol solutions of α-tocopherol (a product of Wako Pure Chemical Industries, Ltd.) in 0.25 mg/ml and 0.025 mg/ml and methanol solutions of tocotrienol (a product of Sigma Company) in 0.25 mg/ml and 0.025 mg/ml. 10 μl of each of the sample solution was added to 500 μl of the culture medium.
The fluorescent intensity was measured at the optional three places under 100 times magnifications using a Leica stereoscopic fluorescence microscope “MZ FL III” (having a Leica macro fluorescence apparatus having a “GFP” attachment) and a filter set (name): GEP Plant fluorescence (GFP2) (excitation filter: 480/40 nm, absorption filter: 510 nm). Each of the pictures was captured by a CDD camera and converted into gray intensity % to measure the fluorescent intensity. The fluorescent intensity was measured for three places per well and the average value was calculated. Also, 3-4 wells were prepared for each kind of sample.
The system where astaxanthin has added is one where astaxanthin in addition to hydrogen peroxide plus glucose was added. The period of time for pre-cultivation was […] and the number of cells was 0.84×10^5 cell per well.
The tocotrienol or α-tocopherol added system is one where tocotrienol or α-tocopherol in addition to hydrogen peroxide plus glucose was added. The period of time for pre-cultivation was 3 days and the number of cells was 0.89×10^5 cell per well.

For assay [2] the following is noted: cited from earlier work.
[3] abbreviates: specimen 0.5 μg/ml added in addition to hydrogen peroxide plus glucose.
Setting [4] is: specimen 5.0 μg/ml added in addition to hydrogen peroxide plus glucose.

In the case of tocotrienol [Tocotorienol], the “Fluorescent intensity compared with the hydrogen peroxide plus glucose added system” value in assay [1] was “less fluorescent intensity than the hydrogen peroxide plus glucose added system”. The figures for the “Fluorescent intensity (%)” value in assay [1] (setting [3]) and in assay [1] (setting [4]) were 4.35% and 4.40%, respectively. Moreover, the “Antioxidative action, times as strong as tocopherol” value in assay [2] (relative to tocopherol) was “about 50 times”.

`CC1=C(/C=C/C(C)=C/C=C/C(C)=C/C=C/C=C(C)/C=C/C=C(C)/C=C/C2=C(C)C(=O)C(O)CC2(C)C)C(C)(C)CC(O)C1=O` (stereo not drawn) [Astaxanthin, 3,3′-dihydroxy-β,β-carotene-4,4′-dione]: the “Fluorescent intensity (%)” value in assay [1] (astaxanthin 0.104 μg/ml added in addition to hydrogen peroxide plus glucose) is 2.55%; in assay [1] (astaxanthin 1.04 μg/ml added in addition to hydrogen peroxide plus glucose), 1.93%. The “Fluorescent intensity compared with the hydrogen peroxide plus glucose added system” value in assay [1] is listed as “less fluorescent intensity than the hydrogen peroxide plus glucose added system”. For the same molecule, the “Antioxidative action, times as strong as vitamin E” value in assay [2] (relative to vitamin E) is “about 1000 times”. In addition, the “Antioxidative action, times as strong as β-carotene” value in assay [2] (relative to β-carotene) is “about 40 times”.

On to `Cc1c(C)c2c(c(C)c1O)CC[C@@](C)(CCC[C@H](C)CCC[C@H](C)CCCC(C)C)O2` [α-Tocopherol, α-tocopherol], for which, in assay [1], the “Fluorescent intensity compared with the hydrogen peroxide plus glucose added system” value is given as “less fluorescent intensity than the hydrogen peroxide plus glucose added system”. For the same molecule, the entries for the “Fluorescent intensity (%)” value in assay [1] (setting [3]) and in assay [1] (setting [4]) were 4.74% and 4.32%, respectively.
